Legend:
Experiment in all cases: biochemical
[1] = molecular target: T1, 371 kinases (kinase named in each endpoint) (Homo sapiens, UniProt P57078); conditions: RIPK4
T1 construct: purchased Reaction Biology

[2] = molecular target: T2, 371 kinases (kinase named in each endpoint) (Homo sapiens, UniProt Q8IU85); conditions: CAMK1D
T2 construct: purchased Reaction Biology

[3] = molecular target: T3, 371 kinases (kinase named in each endpoint) (Homo sapiens, UniProt P35968); conditions: KDR/VEGFR2
T3 construct: purchased Reaction Biology

[4] = molecular target: T4, 371 kinases (kinase named in each endpoint) (Homo sapiens, UniProt Q15831); conditions: LKB1
T4 construct: purchased Reaction Biology

[5] = molecular target: T5, 371 kinases (kinase named in each endpoint) (Homo sapiens, UniProt P42684); conditions: ABL2/ARG
T5 construct: purchased Reaction Biology

[6] = molecular target: T6, 371 kinases (kinase named in each endpoint) (Homo sapiens, UniProt Q8TF76); conditions: HASPIN
T6 construct: purchased Reaction Biology

[7] = molecular target: T7, 371 kinases (kinase named in each endpoint) (Homo sapiens, UniProt P53671); conditions: LIMK2
T7 construct: purchased Reaction Biology

[8] = molecular target: T8, 371 kinases (kinase named in each endpoint) (Homo sapiens, UniProt P53350); conditions: PLK1
T8 construct: purchased Reaction Biology

[9] = molecular target: T9, 371 kinases (kinase named in each endpoint) (Homo sapiens, UniProt P29597); conditions: TYK2
T9 construct: purchased Reaction Biology

[10] = molecular target: T10, 371 kinases (kinase named in each endpoint) (Homo sapiens, UniProt Q86Z02); conditions: HIPK1
T10 construct: purchased Reaction Biology

[11] = molecular target: T11, 371 kinases (kinase named in each endpoint) (Homo sapiens, UniProt Q02156); conditions: PKCEPSILON
T11 construct: purchased Reaction Biology

[12] = molecular target: T12, 371 kinases (kinase named in each endpoint) (Homo sapiens, UniProt Q00537); conditions: CDK17/CYCLIN Y (PCTK2)
T12 construct: purchased Reaction Biology

[13] = molecular target: T13, 371 kinases (kinase named in each endpoint) (Homo sapiens, UniProt P16591); conditions: FER
T13 construct: purchased Reaction Biology

[14] = molecular target: T14, 371 kinases (kinase named in each endpoint) (Homo sapiens, UniProt P09619); conditions: PDGFRB
T14 construct: purchased Reaction Biology

[15] = molecular target: T15, 371 kinases (kinase named in each endpoint) (Homo sapiens, UniProt O15111); conditions: IKKA/CHUK
T15 construct: purchased Reaction Biology

[16] = molecular target: T16, 371 kinases (kinase named in each endpoint) (Homo sapiens, UniProt Q96SB4); conditions: SRPK1
T16 construct: purchased Reaction Biology

[17] = molecular target: T17, 371 kinases (kinase named in each endpoint) (Homo sapiens, UniProt Q86Y07); conditions: VRK2
T17 construct: purchased Reaction Biology

[18] = molecular target: T18, 371 kinases (kinase named in each endpoint) (Homo sapiens, UniProt O95382); conditions: MEKK6
T18 construct: purchased Reaction Biology

[19] = molecular target: T19, 371 kinases (kinase named in each endpoint) (Homo sapiens, UniProt P68400); conditions: CK2A
T19 construct: purchased Reaction Biology

[20] = molecular target: T20, 371 kinases (kinase named in each endpoint) (Homo sapiens, UniProt P36896); conditions: ALK4/ACVR1B
T20 construct: purchased Reaction Biology

[21] = molecular target: T21, 371 kinases (kinase named in each endpoint) (Homo sapiens, UniProt Q9BXA6); conditions: SSTK/TSSK6
T21 construct: purchased Reaction Biology

[22] = molecular target: T22, 371 kinases (kinase named in each endpoint) (Homo sapiens, UniProt Q9Y3S1); conditions: WNK2
T22 construct: purchased Reaction Biology

[23] = molecular target: T23, 371 kinases (kinase named in each endpoint) (Homo sapiens, UniProt Q16539); conditions: P38A/MAPK14
T23 construct: purchased Reaction Biology

[24] = molecular target: T24, 371 kinases (kinase named in each endpoint) (Homo sapiens, UniProt P51813); conditions: BMX/ETK
T24 construct: purchased Reaction Biology

[25] = molecular target: T25, 371 kinases (kinase named in each endpoint) (Homo sapiens, UniProt P54756); conditions: EPHA5
T25 construct: purchased Reaction Biology

[26] = molecular target: T26, 371 kinases (kinase named in each endpoint) (Homo sapiens, UniProt P37023); conditions: ALK1/ACVRL1
T26 construct: purchased Reaction Biology

[27] = molecular target: T27, 371 kinases (kinase named in each endpoint) (Homo sapiens, UniProt Q5TCY1); conditions: TTBK1
T27 construct: purchased Reaction Biology

[28] = molecular target: T28, 371 kinases (kinase named in each endpoint) (Homo sapiens, UniProt P05771); conditions: PKCB1
T28 construct: purchased Reaction Biology

[29] = molecular target: T29, 371 kinases (kinase named in each endpoint) (Homo sapiens, UniProt Q9P286); conditions: PAK5
T29 construct: purchased Reaction Biology

[30] = molecular target: T30, 371 kinases (kinase named in each endpoint) (Homo sapiens, UniProt Q02763); conditions: TIE2/TEK
T30 construct: purchased Reaction Biology

[31] = molecular target: T31, 371 kinases (kinase named in each endpoint) (Homo sapiens, UniProt Q16816); conditions: PHKG1
T31 construct: purchased Reaction Biology

[32] = molecular target: T32, 371 kinases (kinase named in each endpoint) (Homo sapiens, UniProt P50613); conditions: CDK7/CYCLIN H
T32 construct: purchased Reaction Biology

[33] = molecular target: T33, 371 kinases (kinase named in each endpoint) (Homo sapiens, UniProt Q99759); conditions: MEKK3
T33 construct: purchased Reaction Biology

[34] = molecular target: T34, 371 kinases (kinase named in each endpoint) (Homo sapiens, UniProt O43353); conditions: RIPK2
T34 construct: purchased Reaction Biology

[35] = molecular target: T35, 371 kinases (kinase named in each endpoint) (Homo sapiens, UniProt Q6VAB6); conditions: KSR2
T35 construct: purchased Reaction Biology

[36] = molecular target: T36, 371 kinases (kinase named in each endpoint) (Homo sapiens, UniProt Q9UHD2); conditions: TBK1
T36 construct: purchased Reaction Biology

[37] = molecular target: T37, 371 kinases (kinase named in each endpoint) (Homo sapiens, UniProt P20794); conditions: MAK
T37 construct: purchased Reaction Biology

T33 sequence (Q99759 whole entry): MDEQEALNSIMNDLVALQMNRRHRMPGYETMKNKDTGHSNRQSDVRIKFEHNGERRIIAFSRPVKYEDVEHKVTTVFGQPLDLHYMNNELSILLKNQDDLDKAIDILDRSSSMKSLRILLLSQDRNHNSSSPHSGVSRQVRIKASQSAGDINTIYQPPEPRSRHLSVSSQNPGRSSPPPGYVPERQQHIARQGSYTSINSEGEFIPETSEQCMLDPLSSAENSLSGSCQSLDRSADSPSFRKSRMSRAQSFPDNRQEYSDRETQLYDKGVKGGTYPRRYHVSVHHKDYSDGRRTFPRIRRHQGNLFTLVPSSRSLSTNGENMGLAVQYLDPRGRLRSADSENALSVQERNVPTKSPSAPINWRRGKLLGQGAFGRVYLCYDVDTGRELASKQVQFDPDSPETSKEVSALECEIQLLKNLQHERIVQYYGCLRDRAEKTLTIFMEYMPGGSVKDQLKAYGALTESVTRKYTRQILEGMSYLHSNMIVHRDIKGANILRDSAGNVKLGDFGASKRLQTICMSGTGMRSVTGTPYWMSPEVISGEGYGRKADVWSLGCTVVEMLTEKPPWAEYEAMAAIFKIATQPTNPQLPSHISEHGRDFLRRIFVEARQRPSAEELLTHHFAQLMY
T23 sequence (Q16539 whole entry): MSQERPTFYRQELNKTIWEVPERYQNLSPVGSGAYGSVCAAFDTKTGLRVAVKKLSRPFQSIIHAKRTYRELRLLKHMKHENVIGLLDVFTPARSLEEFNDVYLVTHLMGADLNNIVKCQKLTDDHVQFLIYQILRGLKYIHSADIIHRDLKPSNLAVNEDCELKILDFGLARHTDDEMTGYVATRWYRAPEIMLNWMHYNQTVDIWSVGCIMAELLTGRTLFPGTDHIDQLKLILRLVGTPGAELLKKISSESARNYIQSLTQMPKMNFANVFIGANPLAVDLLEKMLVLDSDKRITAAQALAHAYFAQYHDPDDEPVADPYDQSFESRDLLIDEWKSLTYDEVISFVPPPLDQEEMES
T7 sequence (P53671 whole entry): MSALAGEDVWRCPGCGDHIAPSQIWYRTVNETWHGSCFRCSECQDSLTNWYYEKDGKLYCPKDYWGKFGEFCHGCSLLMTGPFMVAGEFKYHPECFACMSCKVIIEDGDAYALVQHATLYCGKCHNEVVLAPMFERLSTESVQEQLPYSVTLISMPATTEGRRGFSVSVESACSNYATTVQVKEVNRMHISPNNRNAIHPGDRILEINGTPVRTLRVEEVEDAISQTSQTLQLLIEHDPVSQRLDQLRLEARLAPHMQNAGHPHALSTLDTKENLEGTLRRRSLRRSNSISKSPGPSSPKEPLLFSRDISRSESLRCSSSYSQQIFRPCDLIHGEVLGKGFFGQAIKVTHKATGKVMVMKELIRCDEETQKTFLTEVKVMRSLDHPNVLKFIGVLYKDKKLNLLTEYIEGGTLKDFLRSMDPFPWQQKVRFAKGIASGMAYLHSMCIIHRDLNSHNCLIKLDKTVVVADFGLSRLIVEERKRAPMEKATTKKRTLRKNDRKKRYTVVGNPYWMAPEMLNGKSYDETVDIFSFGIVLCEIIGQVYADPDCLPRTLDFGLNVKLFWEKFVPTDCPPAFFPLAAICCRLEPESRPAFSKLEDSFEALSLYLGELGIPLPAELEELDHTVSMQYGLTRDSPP
T22 sequence (Q9Y3S1 whole entry): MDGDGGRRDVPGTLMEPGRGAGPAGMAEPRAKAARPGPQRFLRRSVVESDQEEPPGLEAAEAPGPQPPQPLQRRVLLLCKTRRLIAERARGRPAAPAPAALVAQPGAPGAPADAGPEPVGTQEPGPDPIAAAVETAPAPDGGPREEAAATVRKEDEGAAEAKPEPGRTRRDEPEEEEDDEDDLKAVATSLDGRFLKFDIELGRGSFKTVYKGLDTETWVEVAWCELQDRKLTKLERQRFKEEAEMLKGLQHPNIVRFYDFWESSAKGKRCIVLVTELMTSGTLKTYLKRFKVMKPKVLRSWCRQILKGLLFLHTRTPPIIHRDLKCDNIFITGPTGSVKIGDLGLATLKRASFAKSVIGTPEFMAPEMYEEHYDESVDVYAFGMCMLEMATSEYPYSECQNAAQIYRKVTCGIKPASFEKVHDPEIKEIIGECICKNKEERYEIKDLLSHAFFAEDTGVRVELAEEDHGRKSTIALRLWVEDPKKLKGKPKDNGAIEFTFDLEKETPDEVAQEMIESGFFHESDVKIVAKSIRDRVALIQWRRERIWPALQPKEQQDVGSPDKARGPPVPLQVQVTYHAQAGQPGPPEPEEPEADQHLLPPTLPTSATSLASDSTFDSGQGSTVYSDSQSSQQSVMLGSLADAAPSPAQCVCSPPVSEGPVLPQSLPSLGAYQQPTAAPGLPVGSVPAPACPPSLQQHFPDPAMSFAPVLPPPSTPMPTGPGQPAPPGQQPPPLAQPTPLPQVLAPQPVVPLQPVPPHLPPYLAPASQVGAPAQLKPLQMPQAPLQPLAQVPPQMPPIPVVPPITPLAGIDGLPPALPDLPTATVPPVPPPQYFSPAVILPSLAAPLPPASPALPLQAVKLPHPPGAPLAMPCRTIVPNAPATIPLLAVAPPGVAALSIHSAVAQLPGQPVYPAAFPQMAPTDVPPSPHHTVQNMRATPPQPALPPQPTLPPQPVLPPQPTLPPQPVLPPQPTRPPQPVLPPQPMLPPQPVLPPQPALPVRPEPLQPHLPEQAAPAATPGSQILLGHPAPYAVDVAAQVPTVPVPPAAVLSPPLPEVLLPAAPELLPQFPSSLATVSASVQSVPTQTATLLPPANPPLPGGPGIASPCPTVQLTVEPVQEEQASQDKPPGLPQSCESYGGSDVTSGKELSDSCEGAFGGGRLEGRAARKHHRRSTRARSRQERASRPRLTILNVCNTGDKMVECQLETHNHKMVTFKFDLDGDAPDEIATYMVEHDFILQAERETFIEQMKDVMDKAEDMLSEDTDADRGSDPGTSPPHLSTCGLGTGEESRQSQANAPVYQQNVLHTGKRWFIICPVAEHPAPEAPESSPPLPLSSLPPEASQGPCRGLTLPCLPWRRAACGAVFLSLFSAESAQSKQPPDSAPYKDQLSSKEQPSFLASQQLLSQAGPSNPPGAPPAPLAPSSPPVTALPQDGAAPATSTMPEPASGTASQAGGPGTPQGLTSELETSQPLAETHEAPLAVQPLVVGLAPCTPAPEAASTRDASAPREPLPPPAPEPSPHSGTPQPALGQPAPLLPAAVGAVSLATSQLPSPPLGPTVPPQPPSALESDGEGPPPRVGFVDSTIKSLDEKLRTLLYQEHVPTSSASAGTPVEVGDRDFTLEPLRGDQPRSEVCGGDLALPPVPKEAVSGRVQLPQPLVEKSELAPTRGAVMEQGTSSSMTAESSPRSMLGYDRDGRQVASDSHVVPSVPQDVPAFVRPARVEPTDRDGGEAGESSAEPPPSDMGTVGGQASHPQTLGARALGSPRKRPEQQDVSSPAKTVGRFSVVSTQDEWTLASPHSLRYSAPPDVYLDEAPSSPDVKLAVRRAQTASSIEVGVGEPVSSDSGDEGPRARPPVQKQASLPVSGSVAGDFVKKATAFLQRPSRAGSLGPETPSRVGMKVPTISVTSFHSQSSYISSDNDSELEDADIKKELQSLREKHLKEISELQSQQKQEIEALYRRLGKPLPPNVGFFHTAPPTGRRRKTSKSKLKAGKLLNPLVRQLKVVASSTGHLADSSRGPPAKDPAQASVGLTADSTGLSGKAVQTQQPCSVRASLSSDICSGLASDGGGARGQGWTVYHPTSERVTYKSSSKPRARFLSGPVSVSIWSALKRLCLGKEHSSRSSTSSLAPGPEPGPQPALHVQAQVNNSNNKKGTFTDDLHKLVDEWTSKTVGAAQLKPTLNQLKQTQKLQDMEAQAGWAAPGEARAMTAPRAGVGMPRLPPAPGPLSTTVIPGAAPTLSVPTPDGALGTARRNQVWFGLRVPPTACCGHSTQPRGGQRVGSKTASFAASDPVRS
T8 sequence (P53350 whole entry): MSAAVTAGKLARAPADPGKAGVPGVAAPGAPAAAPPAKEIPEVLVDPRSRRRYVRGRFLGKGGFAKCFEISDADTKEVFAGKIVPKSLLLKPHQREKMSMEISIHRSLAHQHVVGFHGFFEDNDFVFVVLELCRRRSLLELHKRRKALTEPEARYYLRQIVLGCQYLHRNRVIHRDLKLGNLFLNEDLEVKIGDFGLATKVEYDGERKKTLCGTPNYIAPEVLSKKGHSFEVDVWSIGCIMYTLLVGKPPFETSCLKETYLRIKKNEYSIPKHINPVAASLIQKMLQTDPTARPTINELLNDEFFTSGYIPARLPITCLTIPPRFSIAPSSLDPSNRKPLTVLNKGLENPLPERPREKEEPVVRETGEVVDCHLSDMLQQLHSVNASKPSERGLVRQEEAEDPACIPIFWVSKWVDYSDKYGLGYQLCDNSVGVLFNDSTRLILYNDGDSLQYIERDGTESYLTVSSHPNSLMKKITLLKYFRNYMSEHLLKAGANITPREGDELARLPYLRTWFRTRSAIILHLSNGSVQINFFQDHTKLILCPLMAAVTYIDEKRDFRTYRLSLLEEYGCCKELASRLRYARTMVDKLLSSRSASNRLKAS
T26 sequence (P37023 22-503): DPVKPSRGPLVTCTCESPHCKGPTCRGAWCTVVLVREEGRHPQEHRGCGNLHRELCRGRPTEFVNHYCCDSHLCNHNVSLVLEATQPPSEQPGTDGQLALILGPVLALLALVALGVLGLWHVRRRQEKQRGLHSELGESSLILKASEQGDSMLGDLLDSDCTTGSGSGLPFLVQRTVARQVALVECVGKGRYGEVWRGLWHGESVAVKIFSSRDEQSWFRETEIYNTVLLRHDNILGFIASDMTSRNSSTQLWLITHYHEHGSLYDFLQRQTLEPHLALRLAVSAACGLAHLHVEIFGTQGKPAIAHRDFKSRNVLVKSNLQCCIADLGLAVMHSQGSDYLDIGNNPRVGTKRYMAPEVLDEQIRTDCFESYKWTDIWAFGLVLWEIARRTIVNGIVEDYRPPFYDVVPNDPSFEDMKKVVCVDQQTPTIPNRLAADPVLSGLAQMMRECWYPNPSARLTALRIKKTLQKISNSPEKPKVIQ

O=C(O)c1cc(C(F)(F)F)ccc1NCCc1c[nH]c2cc(Br)ccc12 [Compound 5, 2-((2-(6-Bromo-1H-indol-3-yl)ethyl)amino)−5-(trifluoromethyl)benzoic Acid] gave an activity at 10 µM [1] of 45.4 ± 0.9%, an activity at 10 µM [2] of 69.8 ± 1.7% and an activity at 10 µM [3] of 87.7 ± 1.6%. It also gave an activity at 10 µM [4] of 93.7 ± 1.8%, an activity at 10 µM [5] of 94.7 ± 2.8% and an activity at 10 µM [6] of 59.9 ± 1.3%. It also gave an activity at 10 µM [7] of 75.1 ± 1.7%, an activity at 10 µM [8] of 92.7 ± 1.5% and an activity at 10 µM [9] of 78.1 ± 0.7%. It also gave an activity at 10 µM [10] of 64.9 ± 0.2%, an activity at 10 µM [11] of 96.1 ± 0.2% and an activity at 10 µM [12] of 124%. It also gave an activity at 10 µM [13] of 89.6 ± 2%, an activity at 10 µM [14] of 92.5 ± 0.1% and an activity at 10 µM [15] of 83.2 ± 1.4%. For the same compound, the activity at 10 µM [16] was 91.3 ± 0.5%, the activity at 10 µM [17] was 94.6 ± 1% and the activity at 10 µM [18] was 108 ± 1.4%. It also gave an activity at 10 µM [19] of 59.1 ± 0.1%, an activity at 10 µM [20] of 66.7 ± 0.1% and an activity at 10 µM [21] of 102 ± 3%. The activity at 10 µM [22] was 109.6 ± 0.2%, the activity at 10 µM [23] was 124.8 ± 0.6% and the activity at 10 µM [24] was 101.8 ± 0.4%. The activity at 10 µM [25] was 93.4 ± 0.3%, the activity at 10 µM [26] was 67.3 ± 1.4% and the activity at 10 µM [27] was 103 ± 3.1%. It also gave an activity at 10 µM [28] of 91%, an activity at 10 µM [29] of 101.2 ± 0.3% and an activity at 10 µM [30] of 93.7 ± 0.9%. For the same compound, the activity at 10 µM [31] was 87 ± 2.6%, the activity at 10 µM [32] was 104 ± 3.6% and the activity at 10 µM [33] was 107 ± 1.1%. The activity at 10 µM [34] was 109 ± 2.9%, the activity at 10 µM [35] was 83.3 ± 1.5% and the activity at 10 µM [36] was 117 ± 1.2%. The activity at 10 µM [37] was 81.6 ± 0.5%.

From publication PMC10239507, “Development of allosteric and selective CDK2 inhibitors for contraception with negative cooperativity to cyclin binding” (Nature Communications, 2023)
